A short description of one data set: DVS hygroscopicity test. The format is physicochemical.
Data set [1] can be described thus: Moisture absorption on placement under RH (open) conditions for one week. The following applies: for moisture absorption: one week. The format is physicochemical. An excerpt: • (1) The compound ATV-014 hydrobromate crystalline form I provided herein is placed under 70% RH (open) conditions for one week, the moisture absorption is 0.2%, and under 90% RH (open) conditions for one week, the moisture absorption is 18.8%. • (2) The compound ATV-014 p-toluenesulfonate crystalline form I provided herein is placed under 30% RH (open) conditions for one week, the moisture absorption is 0.4%, and under 90% RH (open) conditions for one week, the moisture absorption is 0.5%.

Data set [2] is described as follows: Solubility study in biological media (FaSSIF, FeSSIF, SGF, water) at 37° C. Particulars: for solubility at 0.5 h / solubility at 2 h / solubility at 24 h: thermodynamic from solid. The class given is physicochemical. The procedure:
According to the results of salt formation screening research, the solubilities of free base crystalline form I and p-toluenesulfonate crystalline form I at 0.5 hours, 2 hours, and 24 hours were measured in FaSSIF, FeSSIF, SGF, and water at 37° C.

Data set [3] in a line: Study on the stability of influence factors (40° C./75% RH open, 60° C. sealed, 7 days; HPLC and XRPD). The format is physicochemical. The following applies: for Purity at day 7 (Peak area %) 40° C./75% RH: 40° C./75% RH (open); for Purity at day 7 (Peak area %) 40° C./75% RH / Purity at day 7 (Peak area %) 60° C.: 7 days, HPLC; for Purity at day 7 (Peak area %) 60° C.: 60° C. (sealed sample bottle); for physical and chemical stability / purity and crystalline structure: 60° C. and 40° C./75% RH for 7 days; for Purity at day 0 (Peak area %): day 0, HPLC. An excerpt: X-ray powder diffraction patterns were collected by using a zero-background sample disk on a German Bruker D8 Advance X-ray diffractometer equipped with an automatic sampler. The used radiation source is Cu k α (λ=1.5418 Å), and the light tube voltage is set at 40 KV and the light tube current is set at 40 mA. The divergent slit of X-rays is 0.6 mm. A proper amount of sample was placed in the center of the zero-background sample tray under the environmental condition, the sample was lightly pressed with a clean glass slide to obtain a flat plane, and the zero-background sample rack was fixed. Diffraction analysis of the sample was performed with a scanning step size of 0.02° (2θ) in the range of 3-40° (2θ). The software used for data collection is DIFFRAC.COMMANDER, and the data is analyzed and presented using DIFFRAC.EVA.
The instrument used for liquid chromatography analysis is Agilent HPLC 1260 series,
ATV-014 free base crystalline form I, ATV-014 hydrobromate crystalline form I, and ATV-014 p-toluenesulfonate crystalline form I were taken and placed at 40° C./75% RH (open) and 60° C. (sealed sample bottle) for 7 days. High-performance liquid chromatography and X-ray powder diffraction detection were performed at 0 and 7 days, respectively.

A short description of data set [4]: Activity of ATV014 compared to GS-441524. An excerpt: (§1) The compound ATV014 is a derivative of GS-441524.
Data set [5] in a line: Bioavailability of ATV014 compared to GS-441524.
Text: as §1

Data set [6] can be described thus: Placement under 40° C./75% RH (open) conditions for one week (hydrochloride). The class given is physicochemical.
The conditions of data set [7]: compared with Remdesivir; cited from earlier work.
For data set [8] the following is noted: in vivo in mice, compared with Remdesivir; cited from earlier work.
Where [9] appears, read: after placement under 30% RH and 90% RH (open) for one week.

In brackets after ≈: the same amount, converted by molar mass. Read-outs that look alike come from different tables or passages of the source. Where only a bound is given, the exact number is not on record here.

Usually solubility stands for how much of the substance goes into solution per volume. Higher therefore signals a readily soluble substance.

As to `Cc1ccc(S(=O)(=O)O)cc1.N#C[C@@]1(c2ccc3c(N)ncnn23)O[C@H](COC(=O)C2CCCCC2)[C@@H](O)[C@H]1O.O`, the “hygroscopicity (DVS results)” value in “DVS hygroscopicity test” is listed as “slight hygroscopicity”. Also, the “solid form during / after the DVS test” value in “DVS hygroscopicity test” was “no change in the crystalline structure”. The molecule also returned a hygroscopic weight gain in the data set “DVS hygroscopicity test” (90% RH) of 0.5%. Also, the values for the moisture absorption in [1] (30% RH (open)) and in [1] (90% RH (open)) were 0.4% and 0.5%, respectively. In addition, in [1] (setting [9]), the “crystalline structure and chemical purity” value is “have not changed”. For the same molecule, the “physical and chemical stability” value in data set [1] (setting [9]) and in data set [3] was “good” throughout. The “solubility” value in data set [2] is “higher than 5 mg/mL”; in data set [2] (pH 1.24), >5000 µg/mL. In addition, the “solubility in water relative to that of free base” value in data set [2] is listed as 30 times. The “pH (solution pH)” value in data set [2] (FaSSIF, pH 6.45, 0.5 h) was found to be 5.7; in [2] (FaSSIF, pH 6.45, 2 h) it was 5.67; in data set [2] (FaSSIF, pH 6.45, 24 h), 5.85; in data set [2] (FeSSIF, pH 4.95, 0.5 h) it was 4.65; in [2] (FeSSIF, pH 4.95, 2 h) it was 4.62; in [2] (FeSSIF, pH 4.95, 24 h), 4.83. Moreover, the “pH (solution pH)” value in [2] (SGF, pH 1.24, 0.5 h) is 0.69; in [2] (SGF, pH 1.24, 2 h), 0.70; in data set [2] (SGF, pH 1.24, 24 h), 1.20; in data set [2] (water, pH 5.53, 0.5 h) it was 2.05; in data set [2] (water, pH 5.53, 2 h), 2.07; in [2] (water, pH 5.53, 24 h) it was 2.43. The “XPRD (solid form of the residue)” value in data set [2] (pH 4.95), in data set [2] (pH 5.53) and in data set [2] (pH 6.45) was “free base” in each case. Moreover, the “Purity at day 7 (Peak area %) 40° C./75% RH” value in [3] came out at 98.71%. The “Purity at day 7 (Peak area %) 60° C.” value in [3] worked out at 98.62%. Further, in data set [3], the “purity and crystalline structure” value is “remained unchanged”. Moreover, the “Purity at day 0 (Peak area %)” value in [3] was determined as 98.60%.

As for `N#C[C@@]1(c2ccc3c(N)ncnn23)O[C@H](COC(=O)C2CCCCC2)[C@@H](O)[C@H]1O` [ATV014], the activity entry in data set [4] is “better”. The bioavailability entry in [5] is “better”.

Consider `N#C[C@@]1(c2ccc3c(N)ncnn23)O[C@H](COC(=O)C2CCCCC2)[C@@H](O)[C@H]1O` [ATV-014 free base crystalline form I], for which the “pH (solution pH)” value in data set [2] (FaSSIF, pH 6.45, 0.5 h) stood at 6.45; in data set [2] (FaSSIF, pH 6.45, 2 h), 6.44; in data set [2] (FaSSIF, pH 6.45, 24 h), 6.58; in data set [2] (FeSSIF, pH 4.95, 0.5 h) it was 4.76; in data set [2] (FeSSIF, pH 4.95, 2 h) it was 4.74; in data set [2] (FeSSIF, pH 4.95, 24 h), 4.96. The “pH (solution pH)” value in [2] (SGF, pH 1.24, 0.5 h) worked out at 0.95; in data set [2] (SGF, pH 1.24, 2 h), 0.9; in [2] (SGF, pH 1.24, 24 h) it was 1.26; in [2] (water, pH 5.53, 0.5 h) it was 7.24; in data set [2] (water, pH 5.53, 2 h) it was 6.45; in data set [2] (water, pH 5.53, 24 h), 6.5. The “solubility” value in data set [2] (SGF, 37° C., 0.5-24 h, medium not named in the sentence for the p-toluenesulfonate) lay within 2500 to 2900 µg/mL. In addition, the solubility at 0.5 h is 2480 µg/mL (≈ 6180 µM) in [2] (simulated gastric fluid, SGF, pH 1.24, 0.5 h, 37° C.); 7 µg/mL (≈ 17.4 µM) in [2] (FaSSIF, pH 6.45, 0.5 h, 37° C.); 14 µg/mL (≈ 34.9 µM) in data set [2] (FeSSIF, pH 4.95, 0.5 h, 37° C.); 5 µg/mL (≈ 12.5 µM) in [2] (water, pH 5.53, 0.5 h, 37° C.). In addition, the solubility at 2 h in data set [2] (simulated gastric fluid, SGF, pH 1.24, 2 h, 37° C.) was 2560 µg/mL (≈ 6380 µM); in data set [2] (FaSSIF, pH 6.45, 2 h, 37° C.), 10 µg/mL (≈ 24.9 µM); in data set [2] (FeSSIF, pH 4.95, 2 h, 37° C.), 19 µg/mL (≈ 47.3 µM); in data set [2] (water, pH 5.53, 2 h, 37° C.), 6 µg/mL (≈ 14.9 µM). Besides, the solubility at 24 h was 2860 µg/mL (≈ 7120 µM) in data set [2] (simulated gastric fluid, SGF, pH 1.24, 24 h, 37° C.); 21 µg/mL (≈ 52.3 µM) in [2] (FaSSIF, pH 6.45, 24 h, 37° C.); 20 µg/mL (≈ 49.8 µM) in [2] (FeSSIF, pH 4.95, 24 h, 37° C.); 5 µg/mL (≈ 12.5 µM) in [2] (water, pH 5.53, 24 h, 37° C.). Moreover, the “Purity at day 7 (Peak area %) 40° C./75% RH” value in data set [3] is on record as 98.09%. Besides, the “Purity at day 7 (Peak area %) 60° C.” value in data set [3] came to 98.10%. Besides, the “physical and chemical stability” value in data set [3] is given as “good”. Besides, the “purity and crystalline structure” value in data set [3] is listed as “remained unchanged”. Also, in data set [3], the “Purity at day 0 (Peak area %)” value is listed as 98.12%.

In the case of `Br.N#C[C@@]1(c2ccc3c(N)ncnn23)O[C@H](COC(=O)C2CCCCC2)[C@@H](O)[C@H]1O` [ATV-014 hydrobromide crystalline form I], in the data set “DVS hygroscopicity test”, the “hygroscopicity (DVS results)” value is reported as “has hygroscopicity” and the “solid form during / after the DVS test” value is listed as “transforms into an amorphous glassy solid”. Further, the hygroscopic weight gain in “DVS hygroscopicity test” (70% RH, after equilibrating for 30 to 120 minutes) was 0.2%. Also, in the data set “DVS hygroscopicity test” (90% RH), the hygroscopic weight gain was found to be 18.8%. In addition, the moisture absorption in [1] (70% RH (open)) worked out at 0.2%. In addition, in [1] (90% RH (open)), the moisture absorption worked out at 18.8%. In data set [3], the “Purity at day 7 (Peak area %) 40° C./75% RH” value is reported as “Liquefaction,”, the “Purity at day 7 (Peak area %) 60° C.” value turned out to be 99.57% and the “Purity at day 0 (Peak area %)” value was 99.46%. Moreover, the “state of the sample” value in data set [3] (40° C./75% RH for 7 days) is given as “the sample liquefies”. The “purity and crystalline form” value in [3] (60° C. for 7 days) is “remained unchanged”.

In the case of `Cl.N#C[C@@]1(c2ccc3c(N)ncnn23)O[C@H](COC(=O)C2CCCCC2)[C@@H](O)[C@H]1O` [ATV-014 hydrochloride crystalline form], in data set [6], the “crystalline structure and chemical purity” value was “have not changed”; the “physical and chemical stability” value is “good”.

Turning to `N#C[C@@]1(c2ccc3c(N)ncnn23)O[C@H](CO)[C@@H](O)[C@H]1O` [GS-441524], in data set [7], the safety entry was “better safety”. Besides, the antiviral effect result in [8] was “superior to that of Remdesivir”.

The values above are taken from US20240366617A1, “NOVEL CRYSTALLINE FORMS OF A NUCLEOSIDE COMPOUND AND SALTS THEREOF” (priority 2021, published 2024).
